# Source: patent US20200101103A1, “REINFORCEMENT OF MUCUS BARRIER PROPERTIES” (CIRQLE BIOMEDICAL CONTRACEPTION IVS, priority 2017, published 2020)
# System: purified porcine gastric mucin
# Test: Effect of muco-adhesive amino acid polymers on mucin gels (light microscopy)
# Settings: 5 mg/mL polymer, 4 μl mucin drop, 3 min to 50 min of contact
# Procedure: FIG. 7 illustrates the effect of low or high molecular weight muco-adhesive polymers on mucin gels. A 4 μl drop of purified porcine gastric mucin was placed in a solution of poly-L-arginine (PLA, DP 11 corresponding to 1.9 kDa, 5 mg/mL), poly-L-lysine (PLL, DP 11 corresponding to 1.6 kDa, 5 mg/mL), or poly-L-lysine (PLL, DP 400 corresponding to 66 kDa, 5 mg/mL). The drop of mucin was observed under the microscope (10x objective). The three images are taken after 3 min, 12 min 30, and 50 min of contact.
# Effect of low or high molecular weight muco-adhesive polymers on mucin gels. A 4 μl drop of purified porcine gastric mucin was placed in a solution of poly-L-arginine (PLA, 1.9 kDa, 5 mg/mL), poly-L-lysine (PLL, 1.6 kDa, 5 mg/mL), or poly-L-lysine (PLL, 66 kDa, 5 mg/mL). The drop of mucin was observed under the microscope (10× objective). The three images are taken after 3 min, 12 min 30, and 50 min of contact.
row,Substance,effect on mucin gel drop
1,"poly-L-arginine [PLA, 1.9 kDa]",clearly crosslinks the mucin in depth
2,"poly-L-lysine [PLL, 66 kDa, reference compound]",changes the structure of the mucins drop and compacts it significantly
3,"poly-L-lysine [PLL, 1.6 kDa]",clearly crosslinks the mucin in depth
